Laboratory results: patent US20060069132A1, “Azolecarboxamide herbicides” (priority 2004, published 2006)

What was measured:
barnyardgrass [1] = assay: Test B flooded paddy test; format: in vivo, Echinochloa crus-galli; conditions: 1000 g ai/ha, scale 0 to 100 (0 no effect, 100 complete control)
In short: (§1)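 Plants grow to 1- to 4-leaf stage (2–18 cm) for postemergence spraying, or to 2-leaf stage for the paddy test. Formulated compound is applied. Greenhouse holding lasts 13–15 days. Response is scored visually relative to controls, 0 no effect to 100 complete control; a dash means no result.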

wild oat = assay: Test B postemergence herbicide test; format: in vivo, Avena fatua; conditions: postemergence
In short: (§2)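 Formulated test chemicals went onto postemergence plants measuring 2 to 18 cm, at one to four leaves. For the paddy assay, species had reached two leaves. Scoring took place 13–15 days later by eye, relative to untreated plants, using 0 for no effect up to 100 for full control.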

velvetleaf = assay: Test B pre-/postemergence herbicide test; format: in vivo, Abutilon theophrasti; conditions: for Velvetleaf plant response rating: postemergence
In short: (§3)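 Herbicidal effect was judged by eye on a 0–100 scale after plants stood 13 to 15 days in the greenhouse following pre- or postemergence treatment with surfactant-containing formulations.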

rice [2] = assay: Test B flooded paddy test; format: in vivo, Oryza sativa; conditions: 1000 g ai/ha, scale 0 to 100 (0 no effect, 100 complete control)
In short: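 Treated at 2-leaf (paddy) or 1–4-leaf, 2–18 cm (postemergence); greenhouse 13–15 d; visual score vs control, 0 none to 100 complete control; dash = not tested.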

pigweed = assay: Test B pre-/postemergence herbicide test; format: in vivo, Amaranthus retroflexus; conditions: for Pigweed plant response rating: postemergence
In short: as §3

blackgrass = assay: Test B postemergence herbicide test; format: in vivo, Alopecurus myosuroides; conditions: postemergence, visual rating, scale 0 (no effect) to 100 (complete control)
In short: as §1

cocklebur = assay: Test B pre-/postemergence herbicide test; format: in vivo, Xanthium strumarium; conditions: for Cocklebur plant response rating: postemergence, scale 0 (no effect) to 100 (complete control)
In short: (§4)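 Species tested were Echinochloa crus-galli, Ipomoea coccinea, Xanthium strumarium and Oryza sativa, treated both before emergence and at the 1- to 4-leaf stage; rice and barnyardgrass were also tested under flooding at 2 leaves. Greenhouse incubation lasted 13–15 days before visual 0–100 scoring.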

giant foxtail = assay: Test B pre-/postemergence herbicide test; format: in vivo, Setaria faberi; conditions: for Foxtail, Giant plant response rating: postemergence
In short: as §3

Surinam grass = assay: Test B pre-/postemergence herbicide test; format: in vivo, Urochloa decumbens; conditions: for Surinam Grass plant response rating: postemergence
In short: as §3

corn = assay: Test B pre-/postemergence herbicide test; format: in vivo, Zea mays; conditions: for Corn plant response rating: postemergence
In short: as §3

ducksalad = assay: Test B flooded paddy test; format: in vivo, Heteranthera limosa; conditions: 1000 g ai/ha, scale 0 to 100 (0 no effect, 100 complete control)
In short: as §1

morningglory = assay: Test B pre-/postemergence herbicide test; format: in vivo, Ipomoea coccinea; conditions: for Morningglory plant response rating: postemergence
In short: as §4

rice [3] = assay: Test B pre-/postemergence herbicide test; format: in vivo, Oryza sativa; conditions: 0 = no effect, 100 = complete control, preemergence
In short: as §3

[4] = system: small flower umbrella sedge; assay: Test B flooded paddy test; format: in vivo, Cyperus difformis; conditions: 1000 g ai/ha, scale 0 to 100 (0 no effect, 100 complete control)
In short: as §1

lambsquarters = assay: Test B pre-/postemergence herbicide test; format: in vivo, Chenopodium album; conditions: for Lambsquarters plant response rating: postemergence
In short: as §3

large crabgrass = assay: Test B pre-/postemergence herbicide test; format: in vivo, Digitaria sanguinalis; conditions: for Crabgrass, Large plant response rating: postemergence
In short: as §3

barnyardgrass [5] = assay: Test B pre-/postemergence herbicide test; format: in vivo, Echinochloa crus-galli; conditions: for Barnyardgrass plant response rating: postemergence, scale 0 (no effect) to 100 (complete control)
In short: as §4

wheat = assay: Test B postemergence herbicide test; format: in vivo, Triticum aestivum; design: key to Wheat plant response rating: 0 = no effect, 100 = complete control; conditions: postemergence
In short: as §2

[6] = 125 g ai/ha, visual rating, scale 0 (no effect) to 100 (complete control)
[7] = 500 g ai/ha, scale 0 to 100, 0 is no effect, 100 is complete control
[8] = 125 g ai/ha, 0 = no effect, 100 = complete control, preemergence
[9] = 500 g ai/ha, visual rating, 0 = no effect, 100 = complete control, preemergence

C#CCNC(=O)c1cncc(NC(=O)c2cc(C(C)(C)C)nn2CC)c1 [Compound 264]
Barnyardgrass plant response rating (barnyardgrass [1]): 0 | Oat, Wild plant response rating (wild oat; [6]): 0 | Oat, Wild plant response rating (wild oat; [7]): 20 | Velvetleaf plant response rating (0 to 100 scale) (velvetleaf; [8]): 0 | Plant response rating, Velvetleaf (velvetleaf; [9]): 10 | Velvetleaf plant response rating (velvetleaf; [6]): 0 | Velvetleaf plant response rating (velvetleaf; [7]): 0 | Rice plant response rating (rice [2]): 0 | Pigweed plant response rating (0 to 100 scale) (pigweed; [8]): 0 | Plant response rating, Pigweed (pigweed; [9]): 100 | Pigweed plant response rating (pigweed; [6]): 0 | Pigweed plant response rating (pigweed; [7]): 0 | Blackgrass plant response rating (blackgrass; 125 g ai/ha): 0 | Blackgrass plant response rating (blackgrass; 500 g ai/ha): 20 | Cocklebur plant response rating (0 to 100 scale) (cocklebur; [8]): 0 | Plant response rating, Cocklebur (cocklebur; [9]): 0 | Cocklebur plant response rating (cocklebur; 125 g ai/ha, visual rating): 0 | Cocklebur plant response rating (cocklebur; 500 g ai/ha, visual rating): 0 | Foxtail, Giant plant response rating (0 to 100 scale) (giant foxtail; [8]): 0 | Plant response rating, Foxtail, Giant (giant foxtail; [9]): 10 | Foxtail, Giant plant response rating (giant foxtail; [6]): 0 | Foxtail, Giant plant response rating (giant foxtail; [7]): 0 | Surinam Grass plant response rating (0 to 100 scale) (Surinam grass; [8]): 0 | Plant response rating, Surinam Grass (Surinam grass; [9]): 10 | Surinam Grass plant response rating (Surinam grass; [6]): 0 | Surinam Grass plant response rating (Surinam grass; [7]): 0 | Corn plant response rating (0 to 100 scale) (corn; [8]): 0 | Plant response rating, Corn (corn; [9]): 0 | Corn plant response rating (corn; [6]): 0 | Corn plant response rating (corn; [7]): 0 | Ducksalad plant response rating (ducksalad): 90 | Morningglory plant response rating (0 to 100 scale) (morningglory; [8]): 0 | Plant response rating, Morningglory (morningglory; [9]): 0 | Morningglory plant response rating (morningglory; [6]): 0 | Morningglory plant response rating (morningglory; [7]): 0 | Rice plant response rating (0 to 100 scale) (rice [3]; 125 g ai/ha): 0 | Plant response rating, Rice (rice [3]; 500 g ai/ha, visual rating): 0 | Sedge, Umbrella plant response rating [4]: 50 | Lambsquarters plant response rating (0 to 100 scale) (lambsquarters; [8]): 0 | Plant response rating, Lambsquarters (lambsquarters; [9]): 100 | Lambsquarters plant response rating (lambsquarters; [6]): 0 | Lambsquarters plant response rating (lambsquarters; [7]): 0 | Crabgrass, Large plant response rating (0 to 100 scale) (large crabgrass; [8]): 10 | Plant response rating, Crabgrass, Large (large crabgrass; [9]): 50 | Crabgrass, Large plant response rating (large crabgrass; [6]): 0 | Crabgrass, Large plant response rating (large crabgrass; [7]): 0 | Barnyardgrass plant response rating (0 to 100 scale) (barnyardgrass [5]; [8]): 0 | Plant response rating, Barnyardgrass (barnyardgrass [5]; [9]): 10 | Barnyardgrass plant response rating (barnyardgrass [5]; 125 g ai/ha, visual rating): 0 | Barnyardgrass plant response rating (barnyardgrass [5]; 500 g ai/ha, visual rating): 0 | Wheat plant response rating (wheat; [6]): 0 | Wheat plant response rating (wheat; [7]): 10
